# Experimental data as given in paper PMC6993528, “Dehydroepiandrosterone and Its CYP7B1 Metabolite 7α-Hydroxydehydroepiandrosterone Regulates 11β-Hydroxysteroid Dehydrogenase 1 Directions in Rat Leydig Cells” (Frontiers in Endocrinology, 2020).
# “Also recorded” adds a separate entry of the source.
# What was measured:
# [1] = molecular target: T1, 11β-HSD1 (Rattus norvegicus, UniProt P16232); test: 11β-HSD1 oxidase assay in ALC microsomes; assay type: biochemical
# T1 construct: endogenous in cells; host or cells: primary rat adult Leydig cells (ALCs) from 90-day-old rat testes
# Method: (§1) The microsomes from ALCs were prepared as described previously ([6]). In brief, ALCs were homogenized in cold 0.01M PBS, pH 7.2, containing 0.25 M sucrose. Subsequently, the homogenates were centrifuged at 700 × g for 30 min and the supernatants were transferred to other tubes followed by centrifugation at 10,000 × g for 30 min. The resultant supernatants were centrifuged twice at 105,000 × g for 1 h. The pellets were resuspended and the protein contents were determined by Bio-Rad Protein Assay Kit (cat# 500–0006, Bio-Rad, Hercules, CA). Microsomes were used to assay 11β-HSD1 oxidoreductase activities.
# (§2) 11β-HSD1 oxidase and reductase in microsomes were performed as previously described ([15]). For measurements in microsomal preparations, microsomes were incubated with 25 nM [^3H]-CORT and 0.2 mM NADP^+ for oxidase or 25 nM [^3H]-DHC and 0.2 mM NADPH for reductase activity in presence of different concentrations of DHEA or 7αOHD. For testing mode of action, microsomes were incubated with 2 nM to 10 μM [^3H]-CORT and 0.2 mM NADP^+ for oxidase or 2 nM to 10 μM [^3H]-DHC and 0.2 mM NADPH for reductase activity. 1.5 μg of ALC microsomes were added to initiate the reaction. The reactions were stopped by adding 2 ml ice-cold ether. The steroids were extracted, and the organic layer was dried under nitrogen. The steroids were separated chromatographically on thin layer plates in chloroform and methanol (90:10, v/v), and the radioactivity was measured using a scanning radiometer (System AR2000, Bioscan Inc., Washington, DC). The percentage conversion of CORT to DHC and DHC to CORT was calculated by dividing the radioactive counts identified as DHC (or CORT, respectively) by the total counts associated with CORT plus DHC.
# [2] = molecular target: T1, 11β-HSD1; test: 11β-HSD1 reductase assay in intact ALCs (DHC to CORT); assay type: cell-based; details: for lowest observable effective level (LOEL) on 11β-HSD1 reductase activity: 10 nM-10 μM tested
# Excerpt: (§3) Testes were processed for purification of Leydig cells. The progenitor (PLC), immature (ILC), and adult Leydig cells (ALC) were purified from rat testes at 21, 35, and 90 days postpartum, as described previously ([25], [26]). In brief, forty 21-day-old (for PLCs), eighteen 35-day-old (for ILCs), and six 90-day-old (for ALCs) rats were sacrificed, followed by removal and decapsulation of testes. Then, the testes were digested with collagenase and cells were separated by Percoll density gradient centrifugation. Purities of Leydig cell fractions were evaluated by histochemical staining of 3β-hydroxysteroid dehydrogenase (3β-HSD), with 0.4 mM etiocholanolone as an enzyme substrate ([27]). At least six isolations per cell types were performed.
# (§4) 11β-HSD1 oxidase and reductase in intact ALCs were performed as previously described ([15]).11β-HSD1 oxidase activity assay tubes contained 25 nM CORT spiked with 60,000 dpm [^3H]-CORT (a concentration within the range of physiological levels of CORT). 11β-HSD1 reductase activity assay tubes contained 25 nM DHC spiked with 60,000 dpm [^3H]-DHC. 2.5 × 10^4 intact ALCs were added to start the reaction and the reaction was maintained in 34°C and 75 rpm shaking water bath for 30 min. The reactions were stopped by adding 2 ml ice-cold ether. The steroids were extracted, and the organic layer was dried under nitrogen. The steroids were separated chromatographically on thin layer plates in chloroform and methanol (90:10, v/v), and the radioactivity was measured using a scanning radiometer (System AR2000, Bioscan Inc., Washington, DC). The percentage conversion of CORT to DHC and DHC to CORT was calculated by dividing the radioactive counts identified as DHC (or CORT, respectively) by the total counts associated with CORT plus DHC.
# [3] = molecular target: T1, 11β-HSD1; test: 11β-HSD1 reductase assay in ALC microsomes; assay type: biochemical; details: for LOEL on 11β-HSD1 reductase activity in ALC microsomes: 10 nM-10 μM tested
# Method: as §1, §2
# [4] = molecular target: T1, 11β-HSD1; test: 11β-HSD1 oxidase assay in intact ALCs (CORT to DHC); assay type: cell-based; details: for lowest observable effective level (LOEL) on 11β-HSD1 oxidase activity: 10 nM-10 μM tested
# Excerpt: as §3, §4
# [5] = ALC microsomes, 0, 1 and 10 μM, Lineweaver-Burk plot
# T1 sequence (P16232 whole entry): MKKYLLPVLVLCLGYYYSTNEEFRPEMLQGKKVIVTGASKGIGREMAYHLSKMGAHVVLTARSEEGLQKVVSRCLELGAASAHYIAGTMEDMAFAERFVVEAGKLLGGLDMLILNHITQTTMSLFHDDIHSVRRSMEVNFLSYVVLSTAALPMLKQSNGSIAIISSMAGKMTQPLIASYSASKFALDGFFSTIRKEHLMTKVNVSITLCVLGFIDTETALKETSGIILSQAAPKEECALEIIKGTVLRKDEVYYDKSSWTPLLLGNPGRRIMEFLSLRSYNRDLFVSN
smiles,measurement,setting,value
"C[C@]12CC[C@H](O)CC1=C[C@@H](O)[C@@H]1[C@@H]2CC[C@]2(C)C(=O)CC[C@@H]12 [7αOHD, 7α-hydroxydehydroepiandrosterone]",mode of action on 11β-HSD1 oxidase,[1]; [5],competitive inhibitor
same,LOEL on 11β-HSD1 oxidase activity in ALC microsomes,"[1]; ALC microsomes, 10 nM-10 μM tested",100 nM
same,"EC50/IC50 for 11β-HSD1 oxidase, microsome","[1]; ALC microsomes, 25 nM CORT plus 0.2 mM NADP+, ND, not detected, Mean ± SEM (n = 4)",0.93 ±0.14 ×10^−6 M
same,IC50,"[1]; ALC microsomes, 25 nM CORT plus 0.2 mM NADP+, read-out: IC50 for inhibiting 11β-HSD1 oxidase activity in ALC microsomes",930 nM
same,11β-HSD1 oxidase activity in ALC microsomes,[1]; at 1 μM,60 % of control
same,11β-HSD1 oxidase activity in ALC microsomes,[1]; at 10 μM,25 % of control
same,11β-HSD1 oxidase/reductase ratio in ALC microsomes,[1]; at 0.1–10 μM,significantly decreased
same,lowest observable effective level (LOEL) on 11β-HSD1 reductase activity,[2]; intact ALCs,100 nM
same,EC50,"[2]; intact ALCs, 25 nM DHC, 0.5 h, Mean ± SEM (n = 4), read-out: EC50 for stimulation of 11β-HSD1 reductase, intact Leydig cells",700 ± 40 nM
same,11β-HSD1 reductase activity,"[2]; intact ALCs, at 1 μM",200 % of control
same,11β-HSD1 reductase activity,"[2]; intact ALCs, at 10 μM",200 % of control
same,LOEL on 11β-HSD1 reductase activity in ALC microsomes,[3]; ALC microsomes,100 nM
same,EC50,"[3]; ALC microsomes, 25 nM DHC plus 0.2 mM NADPH, Mean ± SEM (n = 4), read-out: EC50 for stimulation of 11β-HSD1 reductase, microsome",200 ± 10 nM
same,effect on 11β-HSD1 reductase activity in ALC microsomes at the highest concentration,[3]; at the highest concentration (100 nM),did not affect
same,lowest observable effective level (LOEL) on 11β-HSD1 oxidase activity,[4]; intact ALCs,100 nM
same,IC50,"[4]; intact ALCs, 25 nM CORT, 0.5 h, Mean ± SEM (n = 4), read-out: IC50 for inhibition of 11β-HSD1 oxidase, intact Leydig cells",1180 ± 120 nM
same,11β-HSD1 oxidase activity,"[4]; intact ALCs, at 1 μM",60 % of control
same,11β-HSD1 oxidase/reductase ratio,"[4]; intact ALCs, at 1 μM",50 % of control
same,11β-HSD1 oxidase activity,"[4]; intact ALCs, at 10 μM",25 % of control
same,11β-HSD1 oxidase/reductase ratio,"[4]; intact ALCs, at 10 μM",20 % of control
"C[C@]12CC[C@H](O)CC1=CC[C@@H]1[C@@H]2CC[C@]2(C)C(=O)CC[C@@H]12 [DHEA, dehydroepiandrosterone]",effect on microsomal 11β-HSD1 oxidase activity,"[1]; ALC microsomes, 10 nM-10 μM",did not affect; also recorded: nearly unchanged
same,effect on microsomal 11β-HSD1 oxidase activity at 10 μM,"[1]; ALC microsomes, at 10 μM",inhibited
same,11β-HSD1 oxidase/reductase ratio in ALC microsomes,[1]; at 1 and 10 μM,significantly higher than control
same,IC50,[2],1040 ± 60 nM
same,lowest observable effective level (LOEL) on 11β-HSD1 reductase activity,[2]; intact ALCs,100 nM
same,11β-HSD1 reductase activity,"[2]; intact ALCs, at 10 μM",12 % of control
same,mode of action on 11β-HSD1 reductase,[3]; [5],potent competitive inhibitor
same,LOEL on 11β-HSD1 reductase activity in ALC microsomes,[3]; ALC microsomes,100 nM
same,11β-HSD1 reductase activity in ALC microsomes,[3]; at 10 μM,25 % of control
same,EC50,[4],970 ± 100 nM
same,lowest observable effective level (LOEL) on 11β-HSD1 oxidase activity,[4]; intact ALCs,100 nM
same,11β-HSD1 oxidase activity,"[4]; intact ALCs, at 10 μM",300 % of control
same,increase of 11β-HSD1 oxidase/reductase ratio,"[4]; intact ALCs, at 10 μM",26 folds
